Conditions: in vivo

With `CC(O)CC(=O)OCC(COC(=O)CC(C)O)OC(=O)CC(C)O` (stereo not drawn) [GTβHB, Glyceryl Tris (Beta-HydroxyButyrate)] the “time for beta-hydroxybutyrate and acetoacetate from GTβHB to return to pre-administration levels” value was ≤ 24 h and the “period within which GTβHB is cleared by the body” value (po) was ≤ 24 h.

Reference: patent publication US12239624B2, “Glyceryl tris (beta-hydroxybutyrate) and neuronal transient ischemic attacks” (NeuroEnergy Ventures, Inc., priority 2019, dated 2025)
